Patent US20210290597A1, “METHOD OF TREATING A CONDITION ASSOCIATED WITH NEURODEGENERATION USING INHIBITORS OF OAT3” (Neuropore Therapies, Inc., priority 2018, published 2021)
“And” between values parts separate entries of the source, which are not always exact repeats. Equal entries are not always repeated.

How the values were obtained:
[1] = tested on: L61 ASYN transgenic mice; test: Grip strength, L61 ASYN transgenic mice, 3 month study; type: in vivo; conditions: 5 mg/kg and 10 mg/kg i.p. daily, after 70 days of treatment
Procedure: The effects of Compound 1 on the motor performance deficits (grip strength) and a marker of neuroinflammation (Translocator Protein (18 kDa)) were assessed in both L61 ASYN transgenic and non-transgenic mice in a 3 month administration study.
Briefly, Compound 1 was injected into L61 ASYN transgenic mice and non-transgenic control mice (i.p., once daily) at doses of 5 and 10 mg/kg for 3 months (79 total mice, n=14-17 mice per treatment group). The vehicle control consisted of a solution containing 5% DMSO+20% Cremphor EL+0.9% normal saline. The baseline grip strength of mice was evaluated prior to starting treatments for the 3 month study, and then re-evaluated following 70 days of treatment with vehicle or Compound 1 (5 or 10 mg/kg, i.p. injection daily).

[2] = target: T1, human transporter OAT3 (Homo sapiens, UniProt Q8TCC7); test: In vitro ion transport assay 1, OAT3-mediated uptake in MDCK-II cells; type: cell-based
T1 construct: expressed in transfected cells; host or cells: MDCK-II
T1 sequence (Q8TCC7 1-542): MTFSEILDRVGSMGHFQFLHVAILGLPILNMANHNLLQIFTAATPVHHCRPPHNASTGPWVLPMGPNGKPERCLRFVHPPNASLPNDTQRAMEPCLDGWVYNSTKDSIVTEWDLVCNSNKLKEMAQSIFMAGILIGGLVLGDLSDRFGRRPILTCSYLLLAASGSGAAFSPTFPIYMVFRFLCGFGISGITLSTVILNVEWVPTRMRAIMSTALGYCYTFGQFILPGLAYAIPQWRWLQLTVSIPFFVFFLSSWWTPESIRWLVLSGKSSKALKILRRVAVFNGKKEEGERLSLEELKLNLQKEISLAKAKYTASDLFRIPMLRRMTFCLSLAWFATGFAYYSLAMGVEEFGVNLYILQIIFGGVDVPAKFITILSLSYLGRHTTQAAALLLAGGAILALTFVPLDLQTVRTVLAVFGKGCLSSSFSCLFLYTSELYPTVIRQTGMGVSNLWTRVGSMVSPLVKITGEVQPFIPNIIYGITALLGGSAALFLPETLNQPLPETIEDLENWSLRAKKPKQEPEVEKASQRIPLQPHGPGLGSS
Procedure: To determine the effect of the ion transporter inhibitors on the uptake activity of solute carrier (SLC) ion transporter proteins such as OAT1 and OAT3, an ion transport assay utilizing a polarized monolayer of MDCK-II cells grown on permeable supports was used. The MDCK-II cells were treated to express the transporter of interest (e.g., OAT3 or OAT 1) or were treated with a control vector. 96-well culture plates with both donor and receiver cells containing a monolayer of MDCK-II cells were maintained at 37° C. in 5% CO2 atmosphere. Radio-labeled para-aminohippurate ([3H]-PAH) was used as a substrate for measuring OAT1 and OAT3 mediated transport, where the transport of the substrate was determined by radiometric detection. OAT1-mediated transport was assayed using 2 μM of [3H]-PAH; OAT3-mediated transport was assayed using 10 μM of [3H]-PAH. The probe substrate for OAT1 was 2 μM [3H]-p-aminohippurate. The probe substrate for OAT3 was 10 μM [3H]p-aminohippurate. The reference inhibitor for both assays was 100 μM probenecid. Following pre incubation of the transfected MDCK-II cells in HBSS, [3H]-PAH was added at the concentrations described above. Wells were then treated with either reference inhibitor probeneic acid or with the test compound. Cells transfected with empty vector served as an additional control. […]

[3] = target: T2, human transporter MATE1 (Homo sapiens, UniProt Q96FL8); test: In vitro ion transport assay 1, MATE1; type: cell-based; conditions: probe substrate 10 μM [14C]-metformin
T2 construct: expressed in transfected cells; host or cells: MDCK-II
T2 sequence (Q96FL8 1-570): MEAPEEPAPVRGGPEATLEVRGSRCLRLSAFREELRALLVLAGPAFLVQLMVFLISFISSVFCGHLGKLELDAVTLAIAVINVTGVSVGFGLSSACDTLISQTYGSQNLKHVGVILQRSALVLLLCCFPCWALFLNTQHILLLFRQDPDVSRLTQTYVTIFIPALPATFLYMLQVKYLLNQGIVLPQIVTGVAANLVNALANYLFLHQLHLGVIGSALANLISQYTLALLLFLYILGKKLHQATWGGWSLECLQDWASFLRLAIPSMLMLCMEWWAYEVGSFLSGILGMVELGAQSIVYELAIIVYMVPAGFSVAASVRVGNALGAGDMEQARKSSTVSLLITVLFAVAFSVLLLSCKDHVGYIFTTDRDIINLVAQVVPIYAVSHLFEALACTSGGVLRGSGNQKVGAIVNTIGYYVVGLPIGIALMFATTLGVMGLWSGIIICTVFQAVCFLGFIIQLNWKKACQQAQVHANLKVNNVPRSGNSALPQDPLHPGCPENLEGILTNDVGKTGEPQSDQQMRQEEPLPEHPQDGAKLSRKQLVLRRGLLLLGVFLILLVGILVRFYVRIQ
Procedure: Compound 1 was studied in the concentration range of 0.1-100 μM for its potency against transport mediated by various transporter proteins. [table]

Question: Which results are given for `O=S(=O)(c1ccc(-n2cn[nH]c2=S)cc1)c1ccc(Cl)c(C(F)(F)F)c1` [Compound 1, 4-(4-((4-chloro-3-(trifluoromethyl)phenyl)sulfonyl)phenyl)-2,4-dihydro-3H-1,2,4-triazole-3-thione]?
Answer: grip strength vs vehicle-treated transgenic mice [1]: higher grip strengths; potency against OAT3 compared with potency against OAT1 ([2]; OAT3 vs OAT1, [3H]-PAH uptake): about 20 fold; IC50 ([2]; assay 1, probe substrate 10 μM [3H]-p-aminohippurate, MDCK-II cells): 620 nM and 622 nM; IC50 [3]: 30300 nM
